For 40 compounds, ΔTm results are on record in patent US20240317727A1 (Duke University, priority 2018, published 2024).

One test addresses T1, recombinant HSF1 DNA-binding domain (DBD) (Homo sapiens, UniProt Q00613).
T1 sequence (Q00613 15-120): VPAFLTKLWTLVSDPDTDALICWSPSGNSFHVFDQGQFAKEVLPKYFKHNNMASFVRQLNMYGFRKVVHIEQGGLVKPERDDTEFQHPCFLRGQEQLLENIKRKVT
As to the kind of experiment: Differential Scanning Fluorimetry (DSF), HSF1 DBD melting temperature. The conditions noted are these: Table 1; 5 μM HSF1 DBD, 25PM Compound; positive = stabilizes, negative = destabilizes HSF1. (In DSF a fluorescence change marks the thermal transition of the protein.)
In general, ΔTm refers to the shift of the melting midpoint relative to a reference. `O=C(Nc1ccc(Cl)cc1)Nc1ccc(Cl)c(Cl)c1` [Compound 0001]: the ΔTm at 25 µM is 4.78 °C.

`O=c1c(Nc2ccc(F)cc2)c(Nc2ccc(Cl)c([N+](=O)[O-])c2)c1=O` [Compound 0002, 3-(4-chloro-3-nitro-anilino)-4-(4-fluoroanilino)cyclobut-3-ene-1,2-dione]: the ΔTm at 25 µM amounted to 1.9 °C.

Take `O=C(Nc1ccc(F)cc1)Nc1cccc(C(F)(F)F)c1` [Compound 0003, 1-(4-fluorophenyl)-3-(3-(trifluoromethyl)phenyl)urea]: the ΔTm at 25 µM came to 1.78 °C.

Regarding `Cc1ccc(CNC(=O)CSc2nnc(-c3cccc(N)c3)n2-c2ccccc2)cc1` [Compound 0004], the ΔTm at 25 µM was -9.46 °C.

Turning to `O=[N+]([O-])c1cc(C(F)(F)F)cc([N+](=O)[O-])c1O/N=C1\CSCc2ccccc21` [Compound 0008], the ΔTm at 25 µM was -4.56 °C.

Consider `O=C(N/C=C/c1ccsc1)Nc1cc(Cl)ccc1F` [Compound 0010], for which the ΔTm at 25 µM stood at 5.43 °C.

For the compound `COc1ccc(NC(=O)Nc2ccc(C)cc2)cc1` [Compound 0011, 1-(4-methoxyphenyl)-3-(p-tolyl)urea], the ΔTm at 25 µM turned out to be 2.61 °C.

Regarding `O=[N+]([O-])c1cc(C(F)(F)F)cc([N+](=O)[O-])c1Oc1ccc(F)cc1F` [Compound 0012], the ΔTm at 25 µM was -4.73 °C.

For `COC(=O)c1cc(C#N)c(Sc2c([N+](=O)[O-])cc(C(F)(F)F)cc2[N+](=O)[O-])nc1C(OC)OC` [Compound 0013], the thermal shift (ΔTm) at 25 µM is -7.4 °C.

On to `Cn1ncc(S(=O)(=O)Cc2ccccc2)c(Cl)c1=O` [Compound 0014], for which the thermal shift (ΔTm) at 25 µM was -4.56 °C.

Turning to `Oc1ccccc1/C=N/NC(=S)Nc1cccc(Cl)c1` [Compound 0015], the ΔTm at 25 µM came out at 3.44 °C.

For `O=c1c(Nc2ccc(F)c(F)c2)c(Nc2ccc(Cl)c(S(=O)(=O)C(F)(F)F)c2)c1=O` [Compound 0016, 3-[4-chloro-3-(trifluoromethylsulfonyl)anilino]-4-(3,4-difluoroanilino)cyclobut-3-ene-1,2-dione], the ΔTm at 25 µM was 2.75 °C.

On to `O=C(Nc1ccc(Cl)cc1)Nc1ccc(Cl)cc1` [Compound 0018, 1,3-bis(4-chlorophenyl)urea], for which the ΔTm at 25 µM was determined as 2.44 °C.

For `O=C(Nc1cccc(F)c1)Nc1ccc(Cl)c([N+](=O)[O-])c1` [Compound 0020, 1-(4-chloro-3-nitrophenyl)-3-(3-fluorophenyl)urea], the shift in melting temperature (ΔTm) at 25 µM is 5.2 °C.

Consider `CCOC(=O)c1c(Cl)c2ccccc2oc1=O` [Compound 0021], for which the thermal shift (ΔTm) at 25 µM is -9.19 °C.

Take `O=C(Nc1ccccc1)Nc1ccc(Cl)c(Cl)c1` [Compound 0022, 1-(3,4-dichlorophenyl)-3-phenylurea]: the ΔTm at 25 µM was found to be 2.78 °C.

For the compound `CN(C(=O)Nc1ccc(Cl)c([N+](=O)[O-])c1)c1ccc(F)cc1` [Compound 0023, 3-(4-chloro-3-nitro-phenyl)-1-(4-fluorophenyl)-1-methyl-urea], the ΔTm at 25 µM came out at 0.67 °C.

Consider `Oc1ccc(Cl)cc1/C=N/Nc1cccc(C(F)(F)F)c1` [Compound 0024], for which the ΔTm at 25 µM was determined as 4.44 °C.

As for `Cc1ccc(CNC(=O)CSc2nnc(-c3ccc(C)cc3)n2-c2ccccc2)cc1` [Compound 0025], the shift in melting temperature (ΔTm) at 25 µM is -9.21 °C.

As to `Cc1cccc(NC(=O)Nc2ccc(Cl)c([N+](=O)[O-])c2)c1` [Compound 0026, 1-(4-chloro-3-nitrophenyl)-3-(m-tolyl)urea], the ΔTm at 25 µM was determined as 5.75 °C.

As for `O=C(Nc1ccc(F)cc1)Nc1ccc2nonc2c1` [Compound 0027, 1-(2,1,3-benzoxadiazol-5-yl)-3-(4-fluorophenyl)urea], the shift in melting temperature (ΔTm) at 25 µM came to 2.8 °C.

On to `O=C(Nc1cccnc1)c1cc2c(s1)-c1ccccc1CC2` [Compound 0028], for which the shift in melting temperature (ΔTm) at 25 µM was -9.69 °C.

With `O=C(CSc1nnc(-c2ccncc2)n1-c1ccccc1)N/N=C/c1cccnc1` [Compound 0029], the ΔTm at 25 µM is -8.96 °C.

For the compound `Cc1ccc(-n2c(SCC(=O)NC(C)c3ccccc3)nnc2-c2ccccc2)cc1` (stereo not shown) [Compound 0030], the ΔTm at 25 µM is -8.57 °C.

With `CSc1nnc(SC2=CC(=O)CC(c3ccccc3)C2)s1` (stereo not shown) [Compound 0031], the ΔTm at 25 µM was -6.23 °C.

With `N=C(Nc1ccc(F)cc1)Nc1ccc(Cl)c(C(F)(F)F)c1` [Compound 0032, 1-[4-chloro-3-(trifluoromethyl)phenyl]-3-(4-fluorophenyl)guanidine], the ΔTm at 25 µM is 0.75 °C.

The same test, now with this note: Table 3; 5 μM HSF1 DBD, 25PM Compound; positive = stabilizes, negative = destabilizes HSF1.
For the compound `O=c1c(Nc2ccc(F)cc2)c(Nc2ccc(Cl)c([N+](=O)[O-])c2)c1=O` [Compound 002, 3-(4-chloro-3-nitro-anilino)-4-(4-fluoroanilino)cyclobut-3-ene-1,2-dione], the ΔTm at 25 µM amounted to 1.9 °C.

For the compound `O=C(Nc1ccc(F)cc1)Nc1cccc(C(F)(F)F)c1` [Compound 003, 1-(4-fluorophenyl)-3-(3-(trifluoromethyl)phenyl)urea], the ΔTm at 25 µM turned out to be 1.78 °C.

In the case of `O=C(Nc1ccc(F)cc1)Nc1ccc(Br)c(C(F)(F)F)c1` [Compound 005, 1-(4-bromo-3-(trifluoromethyl)phenyl)-3-(4-fluorophenyl)urea], the ΔTm at 25 µM came to 5.1 °C.

In the case of `Cc1cccc(NC(=O)Nc2cccc(Cl)c2)c1` [Compound 006, 1-(3-chlorophenyl)-3-(m-tolyl)urea], the ΔTm at 25 µM turned out to be 2.5 °C.

For `COc1ccc(NC(=O)Nc2ccc(C)cc2)cc1` [Compound 011, 1-(4-methoxyphenyl)-3-(p-tolyl)urea], the ΔTm at 25 µM was determined as 2.61 °C.

On to `O=c1c(Nc2ccc(F)c(F)c2)c(Nc2ccc(Cl)c(S(=O)(=O)C(F)(F)F)c2)c1=O` [Compound 016, 3-[4-chloro-3-(trifluoromethylsulfonyl)anilino]-4-(3,4-difluoroanilino)cyclobut-3-ene-1,2-dione], for which the thermal shift (ΔTm) at 25 µM worked out at 2.75 °C.

For `O=C(Nc1ccc(F)cc1)Nc1ccc(Cl)c([N+](=O)[O-])c1` [Compound 017, 1-(4-chloro-3-nitrophenyl)-3-(4-fluorophenyl)urea], the ΔTm at 25 µM was 3 °C.

`O=C(Nc1ccc(Cl)cc1)Nc1ccc(Cl)cc1` [Compound 018, 1,3-bis(4-chlorophenyl)urea]: the ΔTm at 25 µM was found to be 2.44 °C.

For the compound `O=C(Nc1cccc(F)c1)Nc1ccc(Cl)c([N+](=O)[O-])c1` [Compound 020, 1-(4-chloro-3-nitrophenyl)-3-(3-fluorophenyl)urea], the ΔTm at 25 µM was found to be 5.2 °C.

With `O=C(Nc1ccccc1)Nc1ccc(Cl)c(Cl)c1` [Compound 022, 1-(3,4-dichlorophenyl)-3-phenylurea], the ΔTm at 25 µM came to 2.78 °C.

Take `CN(C(=O)Nc1ccc(Cl)c([N+](=O)[O-])c1)c1ccc(F)cc1` [Compound 023, 3-(4-chloro-3-nitro-phenyl)-1-(4-fluorophenyl)-1-methyl-urea]: the ΔTm at 25 µM is 0.67 °C.

Turning to `Cc1cccc(NC(=O)Nc2ccc(Cl)c([N+](=O)[O-])c2)c1` [Compound 026, 1-(4-chloro-3-nitrophenyl)-3-(m-tolyl)urea], the thermal shift (ΔTm) at 25 µM stood at 5.75 °C.

On to `O=C(Nc1ccc(F)cc1)Nc1ccc2nonc2c1` [Compound 027, 1-(2,1,3-benzoxadiazol-5-yl)-3-(4-fluorophenyl)urea], for which the ΔTm at 25 µM was found to be 2.8 °C.

On to `N=C(Nc1ccc(F)cc1)Nc1ccc(Cl)c(C(F)(F)F)c1` [Compound 032, 1-[4-chloro-3-(trifluoromethyl)phenyl]-3-(4-fluorophenyl)guanidine], for which the ΔTm at 25 µM was determined as 0.75 °C.
